Drawing on patent US20260097047A1, “Small molecule inhibitors of the ribosome biogenesis factor NVL2” (Board of Regents, The University of Texas System, priority 2023, published 2026), this text covers IC50 for 60 compounds.

Read-outs that look alike come from different tables or passages of the source. Bounds are passed on as bounds.

The subject of this assay is HCT116 cells. Description: Cell viability assay (CellTiter-Glo, 72 hours) in HCT116 human colorectal cancer cells. The format is cell-based. The gist of the method: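 2,000 cells/well adhered overnight, then compound added by digital dispenser with DMSO normalized to 0.5%. Viability read after 72 h at 37 °C by ATP-based CellTiter-Glo luminescence. IC50 from ten-point curves baseline-corrected to vehicle, five-parameter asymmetric least-squares fit.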
(In general: In ATP-based viability assays light output follows the ATP content of the culture.)

Setting [1] is: Table 5, HCT116, 72 hours, read-out: Activity.
Setting [2] is: Table 8, analogs of scaffold drawing 43 defined by R^2, R^3, X/Y, W, read-out: Activity (IC50 class, cell viability assay).
Setting [3] is: Table 6, HCT116, 72 hours, read-out: Activity.
The mark [4] stands for this setting: Table 9, HCT116, 72 hours, read-out: Activity.
[5] abbreviates: cell viability assay, Table 10 analogs of scaffold drawing 45 defined by R2, R3, X/Y, W, read-out: Activity.
Where [6] appears, read: Homo sapiens, HCT-116, Table 5, HCT116, 72 hours, read-out: Activity.
Where [7] appears, read: Table 7, cell viability assay, CellTiter-Glo, 72 hours, scaffold drawing 42 with R^2, R^3, X/Y, Z, read-out: Activity.
Setting [8] is: Table 4, HCT116, 72 hours, read-out: Activity.
The mark [9] stands for this setting: Table 3, HCT116, 72 hours, read-out: Activity.

Turning to `CC#CCN1C(=O)c2ccccc2Sc2cc(Nc3nc(C#N)ccc3C)cnc21`, the IC50 under setting [1] is under 500 nM.
In the case of `CC#CCN1C(=O)c2ccccc2Sc2cc(NC(=O)c3ccc4oc(=O)n(C)c4c3)cnc21`, the IC50 under setting [2] is under 500 nM.
On the same count and under the same terms, under `CC#CCN1C(=O)c2ccccc2Sc2cc(NC(=O)C#CC)ccc21` [—CH2CCMe; CCMe; CH/CH; CH] stands under 500 nM; under `C#CCN1C(=O)c2cc(F)ccc2Sc2cc(NC(=O)C3CC(COC)C3)ccc21` (stereo not shown) [—CH2CCH; 3-MeOCH2-cBu; CH/CF; CH], under 500 nM.
Regarding `CC#CCN1C(=O)c2ccccc2Sc2cc(NC3COC3)cnc21` [Table 6: —CH2CCMe; oxetan-3-yl; CH/N; S], under setting [3], the IC50 is under 500 nM.
Turning to `CC#CCN1C(=O)c2ccccc2C(C#N)c2cc(NC(=O)c3ccc(OC)cc3)ccc21` (stereo not shown) [Table 9: —CH2CCMe; 4-MeOPh; CHCN, N-(5-(But-2-yn-1-yl)-11-cyano-6-oxo-6,11-dihydro-5H-dibenzo[b,e]azepin-2-yl)-4-methoxybenzamide], the IC50 (Homo sapiens, HCT-116, Table 9, HCT116, 72 hours, read-out: Activity) is under 500 nM.
Take `CC#CCN1C(=O)c2ccccc2Sc2cc(NC(=O)C34CC(C3)C4)cnc21`: the IC50 under setting [2] was under 500 nM.
`CC1c2ccccc2C(=O)N(CC#CC2CC2)c2ccc(NC(=O)C3CC(O)C3)cc21` (stereo not drawn) [Table 9: —CH2CC^cPr; cis-3-OH-cBu; CHMe]: under setting [4], the IC50 was under 500 nM.
As to `CC#CCN1C(=O)c2ccc(F)cc2Sc2cc(NC(=O)C3CC4(CC(=NOC)C4)C3)ccc21` (stereo not shown), under setting [2], the IC50 is under 500 nM.
On the same count and under the same terms, under `CC#CCN1C(=O)c2ccccc2Sc2cc(NC(=O)[C@H]3C[C@@H](O)C3)ccc21` [—CH2CCMe; cis-3-OH-cBu; CH/CH; CH] stands under 500 nM.
Turning to `CC#CCN1C(=O)c2ccc(Cl)cc2Sc2cc(NC(=O)C3CC4(CC(O)C4)C3)ccc21` (stereo not shown), the IC50 under setting [5] is under 500 nM.
Regarding `CC#CCN1C(=O)c2ccccc2Sc2cc(NC(=O)C34CC(C)(C3)C4)ccc21`, the IC50 under setting [2] was under 500 nM.
Still for that read-out and setting: next, `O=C(Nc1cnc2c(c1)Sc1ccccc1C(=O)N2CC#CCl)C1CC2(CC(=NO)C2)C1` (stereo not shown): under 500 nM.
Regarding `CC#CCN1C(=O)c2ccccc2Sc2cc(Nc3cccnn3)cnc21`, under setting [1], the IC50 is under 500 nM.
Regarding `CC#CCN1C(=O)c2cc(F)ccc2Sc2cc(NC(=O)OCCOC)ccc21` [—CH2CCMe; O(CH2)2OMe; CH/CF; CH], under setting [2], the IC50 is under 500 nM.
In the case of `CC#CCN1C(=O)c2ccccc2Sc2cc(Nc3ncnc(Cl)n3)ccc21` [10-(But-2-yn-1-yl)-7-((4-chloro-1,3,5-triazin-2-yl)amino)dibenzo[b,f][1,4]thiazepin-11 (10H)-one], the IC50 under setting [6] is 1000 to 5000 nM.
On to `CC#CCN1C(=O)c2ccccc2Sc2cc(NC3COCC3C)ccc21` (stereo not shown) [10-(But-2-yn-1-yl)-7-((4-methyltetrahydrofuran-3-yl)amino)dibenzo[b,f][1,4]thiazepin-11 (10H)-one], for which, under “Homo sapiens, HCT-116, Table 6, HCT116, 72 hours, read-out: Activity”, the IC50 is under 500 nM.
For `CC#CCN1C(=O)c2cc(F)ccc2Sc2cc(NC(=O)C3CC3C(=O)OC)ccc21` (racemic) [—CH2CCMe; trans-2-MeO2C-cPr; CH/CF; CH], the IC50 under setting [2] is under 500 nM.
Turning to `CC#CCN1C(=O)c2ccccc2Sc2cc(NC(=O)C(C)CCOC)cnc21` (stereo not shown) [—CH2CCMe; MeO(CH2)2CHMe-; CH/CH; N], under setting [2], the IC50 was under 500 nM.
`C#CCN1C(=O)c2ccccc2Sc2cc(NC(=O)[C@H]3C[C@H](OC)C3)ccc21` [—CH2CCH; trans-3-MeOcBu; CH/CH; CH]: the IC50 was under 500 nM under setting [2] and under 500 nM under setting [5].
On to `COCCN1C(=O)c2ccccc2Sc2cc(NC(=O)c3ccc(F)c(Cl)c3)ccc21` [—(CH2)2OMe; 3-Cl,4-FPh; CH/CH; S], for which, under setting [7], the IC50 lay within 1000 to 5000 nM.
For `CC#CCN1C(=O)c2ccccc2Sc2cc(NC(=S)NC3COC3)ccc21` [Table 4: —CH2CCMe; oxetan-3-yl; CH], the IC50 under setting [8] is under 500 nM.
Regarding `CC=CCN1C(=O)c2ccccc2Sc2cc(Nc3ncccc3C#N)cnc21`, the IC50 under setting [1] is under 500 nM.
`COCC1CC(C(=O)Nc2ccc3c(c2)C(C#N)c2ccccc2C(=O)N3CC#CCF)C1` (stereo not shown) [Table 9: —CH2CCCH2F; 3-MeOCH2-cBu; CHCN]: the IC50 under setting [4] is under 500 nM.
As to `COCCN1C(=O)c2ccccc2Sc2cc(NC(=O)c3ccc(OC)c(F)c3)ccc21` [—(CH2)2OMe; 3-F,4MeOPh; CH/CH; S], the IC50 under setting [7] was in the range of 500 to 1000 nM.
For the compound `COCCN1C(=O)c2cc(F)ccc2Sc2cc(NC(=O)c3ccoc3)ccc21` [—(CH2)2OMe; furan-3-yl; CH/CF; S], the IC50 under setting [7] is under 500 nM.
For `CC#CCN1C(=O)c2ccccc2Sc2cc(NCCCO)ccc21` [Table 6: —CH2CCMe; (CH2)3OH; CH/CH; S], the IC50 under setting [3] is under 500 nM.
In the case of `CC#CCN1C(=O)c2ccccc2Cc2cc(Nc3ncccc3C)ccc21` [5-(But-2-yn-1-yl)-2-((3-methylpyridin-2-yl)amino)-5H-dibenzo[b,e]azepin-6 (11H)-one], the IC50 under setting [6] is under 500 nM.
Turning to `CC#CCN1C(=O)c2ccccc2Sc2cc(NC(=S)NC3COC3)cnc21` [Table 4: —CH2CCMe; oxetan-3-yl; N], the IC50 under setting [8] was under 500 nM.
With `CC#CCN1C(=O)c2ccccc2C(C)c2cc(NC(=O)C3CC4(CC(=O)C4)C3)ccc21` (stereo not shown), the IC50 under setting [4] is under 500 nM.
Take `CCCCCCN1C(=O)c2ccccc2Sc2cc(NC(=O)c3ccoc3)ccc21` [-nHexyl; furan-3-yl; CH/CH; S]: the IC50 under setting [7] was under 500 nM.
As to `CC#CCN1C(=O)c2ccccc2Sc2cc(NCC3(C)COC3)cnc21`, the IC50 under setting [3] is under 500 nM.
Consider `C=CCN1C(=O)c2ccc(F)cc2Sc2cc(NC(=O)c3ccc4scnc4c3)ccc21`, for which, under setting [7], the IC50 is under 500 nM.
Take `COCC=CC(=O)Nc1cnc2c(c1)Sc1ccccc1C(=O)N2CC#CC1CC1` [—CH2CC^cPr; CH═CHCH2OMe; CH/CH; N]: the IC50 under setting [2] was under 500 nM.
In the case of `C#CCOCCN1C(=O)c2ccccc2Sc2cc(NC(=O)c3ccc(OC)c(F)c3)ccc21` [—(CH2)2OCH2CCH; 3-F,4-MeOPh; CH/CH; S], the IC50 under setting [7] lay within 1000 to 5000 nM.
As to `CC1c2ccccc2C(=O)N(CC#CC2CC2)c2ccc(NC(=O)C3CC4(CC(O)C4)C3)cc21` (stereo not shown), under setting [4], the IC50 is under 500 nM.
With `COCC1CC(C(=O)Nc2ccc3c(c2)C(C)(O)c2ccccc2C(=O)N3CC#CC2CC2)C1` (stereo not shown) [Table 9: —CH2CCcPr; 3-MeOCH2-cBu; CMeOH], under setting [4], the IC50 was under 500 nM.
Turning to `CC#CCN1C(=O)c2ccc(Cl)cc2Sc2cc(NC(=S)C34CC(OC)(C3)C4)ccc21`, under setting [5], the IC50 was under 500 nM.
As to `N#CC1c2ccccc2C(=O)N(CC#CC2CC2)c2ccc(NC(=O)[C@H]3C[C@@H]3CO)cc21` (relative stereo), under setting [4], the IC50 was under 500 nM.
For `CC#CCN1C(=O)c2ccccc2Sc2cc(NC(=O)C3CCN(C)C3=O)ccc21` (stereo not shown), the IC50 under setting [2] lay within 500 to 1000 nM.
The same measure, in the same setting: under `COCC1CC(C(=O)Nc2ccc3c(c2)Sc2ccc(F)cc2C(=O)N3CC#CCF)C1` (stereo not shown) [—CH2CCCH2F; 3-MeOCH2-cBu; CH/CF; CH] stands under 500 nM.
Turning to `CC#CCN1C(=O)c2ccc(Cl)cc2Sc2cc(NC(=O)C3CC3CO)cnc21` (racemic) [—CH2CCMe; trans-2-HOCH2-cPr; CCI/CH; N], the IC50 under setting [2] was under 500 nM.
As for `CC#CCN1C(=O)c2ccccc2Sc2cc(NC(=O)C34CC(C)(C3)C4)cnc21`, the IC50 under setting [2] is under 500 nM.
As for `CC#CCN1C(=O)c2ccc(Cl)cc2Sc2cc(NC(=O)C3CC4(CC(=NO)C4)C3)ccc21` (stereo not shown), the IC50 under setting [2] was under 500 nM.
As to `CO[C@H]1C[C@H](C(=O)Nc2ccc3c(c2)Sc2cc(Cl)ccc2C(=O)N3CC#CCl)C1` [—CH2CCCl; trans-3-MeOcBu; CCI/CH; CH], the IC50 under setting [2] was under 500 nM.
For the compound `COC12CC(C(=O)Nc3cnc4c(c3)Sc3ccccc3C(=O)N4CC#CCF)(C1)C2`, the IC50 under setting [2] was under 500 nM.
With `COCCN1C(=O)c2ccccc2Sc2cc(NC(=O)C3CC3)ccc21` [—(CH2)2OMe; cPr; CH/CH; S], the IC50 under setting [7] lay in the range of 1000 to 5000 nM.
Consider `CC#CCN1C(=O)c2ccccc2Sc2cc(NC(=O)C34CC(C#N)(C3)C4)ccc21`, for which the IC50 under setting [2] was under 500 nM.
With `CC#CCN1C(=O)c2ccc(Cl)cc2Sc2cc(NC(=O)C34CC(O)(C3)C4)ccc21`, under setting [2], the IC50 was under 500 nM.
As to `CC#CCN1C(=O)c2ccccc2Sc2cc(NC(=S)Nc3cccc(OC)c3)cnc21` [Table 4: —CH2CCMe; 3-MeOPh; N], the IC50 under setting [8] is under 500 nM.
In the case of `CON=C1CC2(C1)CC(C(=O)Nc1ccc3c(c1)Sc1ccc(F)cc1C(=O)N3CC#CC1CC1)C2` (stereo not shown), the IC50 under setting [2] is under 500 nM.
As for `CC#CCN1C(=O)c2ccccc2Sc2cc(Nc3nccc(C#N)c3C)cnc21`, the IC50 under setting [1] was under 500 nM.
In the case of `CC#CCN1C(=O)c2ccc(C#N)cc2Sc2cc(NC(=O)[C@@H]3C[C@H]3COC)ccc21` (relative stereo) [—CH2CCMe; trans-2-MeOCH2-cPr; CCN/CH; CH], the IC50 under setting [2] was under 500 nM.
For the compound `CC#CCN1C(=O)c2cc(F)ccc2Sc2cc(NC(=O)C3CC4(CC(=NO)C4)C3)cnc21` (stereo not shown), under setting [2], the IC50 was under 500 nM.
For the compound `C#Cc1ccc(C(=O)Nc2ccc3c(c2)Sc2ccccc2C(=O)N3CCOC)cn1` [—(CH2)2OMe; 6-(HCC)pyrid-3-yl; CH/CH; S], the IC50 under setting [7] was in the range of 1000 to 5000 nM.
On to `COCCNC(=O)Nc1ccc2c(c1)C(C)c1ccccc1C(=O)N2CC#CC1CC1` (stereo not shown) [Table 9: —CH2CC^cPr; NH(CH2)2OMe; CHMe], for which the IC50 under setting [4] is under 500 nM.
Regarding `CC#CCN1C(=O)c2ccccc2Sc2cc(NC(=O)NC3COC3)ccc21` [Table 3: —CH2CCMe; oxetan-3-yl; CH/CH], the IC50 under setting [9] was under 500 nM.
On to `CC#CCN1C(=O)c2ccccc2Sc2cc(NC(=O)NC34CC(OC)(C3)C4)ccc21`, for which the IC50 under setting [9] was under 500 nM.
Regarding `CC#CCN1C(=O)c2ccc(F)cc2Sc2cc(NC(=O)c3ccc4oc(=O)n(C)c4c3)ccc21`, the IC50 under setting [2] was under 500 nM.
Take `CC#CCN1C(=O)c2ccccc2Sc2cc(NC(=S)N3CCCC3)cnc21`: the IC50 (Table 2, HCT116, 72 hours, read-out: Activity) is under 500 nM.
